US20030082112A1, “Composition” (Unilever Home & Personal Care USA, Division of Conopco, Inc., priority 2001, published 2003)

Test: Storage stability of the alkyl hydroxybenzoate in the alkaline chalk oral care formulation
Format: physicochemical
Conditions: 37° C. for two months; 1.0 w/w % in fine ground natural chalk formulation of the Example
Procedure: The following formulation is a composition according to the invention and is made by ordinary methods known to a skilled person.
This octyl parahydroxy benzoic acid in this formulation was stable at 37° C. for two months.

**Q.** With `CCCCCCCCOC(=O)c1ccc(O)cc1` [octyl parahydroxy benzoic acid] as the molecule, how does the “stability in the formulation” value read?
**A.** The value was “stable”.
